Patent US20180064829A1, “FLUORESCENT BISPHOSPHONATE ANALOGS” (University of Southern California, priority 2015, published 2018)
Like-named read-outs stand apart in the source and are kept apart here.

Assays:
[1] = UV-VIS absorption and fluorescence emission spectra; assay type: physicochemical; conditions: 0.1M phosphate buffer (1x PBS for 7d5); ± 1 nm error
Procedure: All labeled samples were dissolved in water and diluted with 0.1 M phosphate buffer or 1×PBS (for 7d5). Assuming that the labeled bisphosphonates have the same extinction coefficient (E) as the carboxylic acid of the free fluorescent label, the final concentrations for all labeled products were calculated from UV-VIS absorption spectra at λ=493 nm (ε=73000 M^−1 cm^−1 at pH 7.2) for FAM conjugates (7a1-7a3, 7b1, 7c1, 7d1-7d2, 7e1-7e2, 7f1-7f2), λ=567.5 nm (ε=114850 M^−1cm^−1 at pH 7.5) for RhR-X conjugates (7a4, 7b2, 7c2), λ=580 nm (c=72000 M^−1cm^−1 at pH 8.0) for ROX conjugates (7a5, 7b3), λ=648 nm (ε=240000 M^−1cm^−1 at pH 7.2) for AF647 conjugates (7a6, 7b4, 7d3), λ=774 nm (ε=240000 M^−1cm^−1 at pH 7.4) for 800CW conjugates (7d4), λ=644 nm (ε=271000 M^−1cm^−1 at pH 7.4, 1×PBS) for Sulfo-Cy5 conjugates (7d5).
Emission spectra for FAM and RhR-X conjugates were recorded using an excitation wavelength of 490 nm or 520 nm, respectively. Emission spectra for AF647 conjugates and Sulfo-Cy5 conjugates were recorded using an excitation wavelength of 600 nm. Emission spectra of 5(6)-ROX conjugates were recorded using an excitation wavelength of 575 nm. Emission spectra of IRDye CW800 conjugate was recorded using an excitation wavelength of 750 nm. The set-up of excitation slit, emission slit, integration time and increment were determined to get optimal spectra for each compound respectively, depending on the sample concentration and spectrometer used.

[2] = assumed the same as the corresponding fluorescent dye, cited from earlier work

Row | Compound | Maximum absorption wavelength (λmax (abs), nm) [1] | Maximum emission wavelength (λmax (em), nm) [1] | Extinction coefficient ([2]; pH 7.0, 0.1M phosphate buffer) | Extinction coefficient ([2]; pH 8.0, 0.1M phosphate buffer) | Extinction coefficient ([2]; pH 7.5, 0.1M phosphate buffer) | Extinction coefficient ([2]; pH 7.2, 0.1M phosphate buffer) | Extinction coefficient ([2]; 1x PBS, pH 7.4)
1 | 2-(5-(3-(6-((2-hydroxy-3-(1-(2-hydroxy-2,2-diphosphonoethyl)-1H-imidazol-3-ium-3-yl)propyl)amino)-6-oxohexyl)-3-methyl-5-sulfo-1-(3-sulfopropyl)indolin-2-ylidene)penta-1,3-dien-1-yl)-3,3-dimethyl-5-sulfo-1-(3-sulfopropyl)-3H-indol-1-ium [AF647-ZOL] | 648.5 nm | 666 nm | 240,000 (pH 7.0) M^−1cm^−1 | – | – | – | –
2 | 16-[2-carboxy-4-({3-[4-(2-carboxy-2-hydroxy-2-phosphonoethyl)pyridin-1-ium-1-yl]-2-hydroxypropyl}carbamoyl)phenyl]-3-oxa-9λ^5,23-diazaheptacyclo[17.7.1.1^5,9.0^2,17.0^4,15.0^23,27.0^13,28]octacosa-1(27),2(17),4,9(28), 13,15,18-heptaen-9-ylium [5(6)-ROX-RISPC] | 579 nm | 606 nm | – | 72,000 (pH 8.0) M^−1cm^−1 | – | – | –
3 | CCN(CC)c1ccc2c(-c3ccc(S(=O)(=O)NCCCCCC(=O)NCC(O)C[n+]4cccc(CC(O)(P(=O)(O)O)P(=O)(O)O)c4)cc3S(=O)(=O)O)c3ccc(=[N+](CC)CC)cc-3oc2c1 (stereo not drawn) [5(6)-RhR-RIS, 1-{3-[6-({4-[6-(diethylamino)-3-(diethylimino)-3H-xanthen-9-yl]-3-sulfobenzene}sulfonamido)hexanamido]-2-hydroxypropyl}-3-(2-hydroxy-2,2-diphosphonoethyl)pyridinium] | 567.5 nm | 589 nm | – | – | 114,850 (pH 7.5) M^−1cm^−1 | – | –
4 | CCN(CC)c1ccc2c(-c3ccc(S(=O)(=O)NCCCCCC(=O)NCC(O)C[n+]4cccc(CC(O)(C(=O)O)P(=O)(O)O)c4)cc3S(=O)(=O)O)c3ccc(=[N+](CC)CC)cc-3oc2c1 (stereo not drawn) [5(6)-RhR-RISPC, 3-(2-carboxy-2-hydroxy-2-phosphonoethyl)-1-{3-[6-({4-[6-(diethylamino)-3-(diethylimino)-3H-xanthen-9-yl]-3-sulfobenzene}sulfonamido)hexanamido]-2-hydroxypropyl}pyridinium] | 568 nm | 589 nm | – | – | 114,850 (pH 7.5) M^−1cm^−1 | – | –
5 | CCN(CC)c1ccc2c(-c3ccc(S(=O)(=O)NCCCCCC(=O)NCC(O)C[n+]4cccc(CC(P(=O)(O)O)P(=O)(O)O)c4)cc3S(=O)(=O)O)c3ccc(=[N+](CC)CC)cc-3oc2c1 (stereo not drawn) [5(6)-RhR-dRIS, 1-{3-[6-({4-[6-(diethylamino)-3-(diethylimino)-3H-xanthen-9-yl]-3-sulfobenzene}sulfonamido)hexanamido]-2-hydroxypropyl}-3-(2,2-diphosphonoethyl)pyridin-1-ium] | 567.5 nm | 589 nm | – | – | 114,850 (pH 7.5) M^−1cm^−1 | – | –
6 | CC1(C)C(C=CC=CC=C2N(CCCS(=O)(=O)O)c3ccc(S(=O)(=O)O)cc3C2(C)CCCCCC(=O)NCC(O)C[n+]2cccc(CC(O)(C(=O)O)P(=O)(O)O)c2)=[N+](CCCS(=O)(=O)O)c2ccc(S(=O)(=O)O)cc21 (stereo not drawn) [AF647-RISPC, 2-(5-(3-(6-((3-(3-(2-carboxy-2-hydroxy-2-phosphonoethyl)pyridin-1-ium-1-yl)-2-hydroxypropyl)amino)-6-oxohexyl)-3-methyl-5-sulfo-1-(3-sulfopropyl)indolin-2-ylidene)penta-1,3-dien-1-yl)-3,3-dimethyl-5-sulfo-1-(3-sulfopropyl)-3H-indol-1-ium] | 648 nm | 666 nm | 240,000 (pH 7.0) M^−1cm^−1 | – | – | – | –
7 | O=C(NCC(O)C[n+]1cc(CC(O)(P(=O)(O)O)P(=O)(O)O)n2ccccc21)c1ccc(-c2c3ccc(=O)cc-3oc3cc(O)ccc23)c(C(=O)O)c1 (stereo not drawn) [Compound 5-FAM-MIN, 1-(3-(3-carboxy-4-(6-hydroxy-3-oxo-3H-xanthen-9-yl)benzamido)-2-hydroxypropyl)-3-(2-hydroxy-2,2-diphosphonoethyl)imidazo[1,2-a]pyridin-1-ium] | 493 nm | 522 nm | – | – | – | 73,000 (pH 7.2) M^−1cm^−1 | –
8 | O=C(NCC(O)C[n+]1cc(CC(O)(C(=O)O)P(=O)(O)O)n2ccccc21)c1ccc(-c2c3ccc(=O)cc-3oc3cc(O)ccc23)c(C(=O)O)c1 (stereo not drawn) [Compound 5-FAM-MINPC, 3-(2-carboxy-2-hydroxy-2-phosphonoethyl)-1-(3-(3-carboxy-4-(6-hydroxy-3-oxo-3H-xanthen-9-yl)benzamido)-2-hydroxypropyl)imidazo[1,2-a]pyridin-1-ium] | 493 nm | 522 nm | – | – | – | 73,000 (pH 7.2) M^−1cm^−1 | –
9 | O=C(NCC(O)C[n+]1cc(CC(O)(P(=O)(O)O)P(=O)(O)O)n2ccccc21)c1ccc(C(=O)O)c(-c2c3ccc(=O)cc-3oc3cc(O)ccc23)c1 (stereo not drawn) [Compound 6-FAM-MIN, 1-(3-(4-carboxy-3-(6-hydroxy-3-oxo-3H-xanthen-9-yl)benzamido)-2-hydroxypropyl)-3-(2-hydroxy-2,2-diphosphonoethyl)imidazo[1,2-a]pyridin-1-ium] | 493 nm | 518 nm | – | – | – | 73,000 (pH 7.2) M^−1cm^−1 | –
10 | O=C(NCC(O)C[n+]1cc(CC(O)(C(=O)O)P(=O)(O)O)n2ccccc21)c1ccc(C(=O)O)c(-c2c3ccc(=O)cc-3oc3cc(O)ccc23)c1 (stereo not drawn) [Compound 6-FAM-MINPC, 3-(2-carboxy-2-hydroxy-2-phosphonoethyl)-1-(3-(4-carboxy-3-(6-hydroxy-3-oxo-3H-xanthen-9-yl)benzamido)-2-hydroxypropyl)imidazo[1,2-a]pyridin-1-ium] | 493 nm | 517 nm | – | – | – | 73,000 (pH 7.2) M^−1cm^−1 | –
11 | CN1/C(=C/C=C/C=C/C2=[N+](CCCCCC(=O)NCC(O)C[n+]3ccn(CC(O)(P(=O)(O)O)P(=O)(O)O)c3)c3ccc(S(=O)(=O)[O-])cc3C2(C)C)C(C)(C)c2cc(S(=O)(=O)[O-])ccc21 (stereo not drawn) [Sulfo-Cy5-ZOL, 1-(6-((2-hydroxy-3-(1-(2-hydroxy-2,2-diphosphonoethyl)-1H-imidazol-3-ium-3-yl)propyl)amino)-6-oxohexyl)-3,3-dimethyl-2-((1E,3E,5E)-5-(1,3,3-trimethyl-5-sulfonatoindolin-2-ylidene)penta-1,3-dien-1-yl)-3H-indol-1-ium-5-sulfonate] | 644 nm | 663 nm | – | – | – | – | 271,000 (1x PBS, pH 7.4) M^−1cm^−1
